Reference: paper PMC9951321
In brackets after ≈: the same amount, converted by molar mass. Where a SMILES comes first, the peptide text is derived from it.

Legend:
[1] = system: E. coli; test: K+ out-diffusion, atomic absorption spectrometry; conditions: 4 × MIC, 1 h; untreated 13.47 µg mL^−1; n = 3
[2] = system: E. coli; test: PGN integrity assay (susceptibility to lysozyme-mediated lysis); conditions: cells grown with 0.625 µmol L^−1 (1/4 × MIC); 1 mg mL^−1 lysozyme, within 20 min incubation, 25 °C
[3] = system: Escherichia coli MDR; test: MIC, broth micro-dilution; assay type: cell-based; conditions: for MIC: 24 h; for MIC against E. coli MDR relative to wild-type E. coli strains: fold higher than those of wild-type E. coli strains
[4] = system: Escherichia coli ATCC 8739; test: MIC, broth micro-dilution; assay type: cell-based
[5] = system: Klebsiella pneumoniae ATCC 13883; test: MIC, broth micro-dilution; assay type: cell-based
[6] = system: Staphylococcus aureus ATCC 25923; test: MIC, broth micro-dilution; assay type: cell-based
[7] = system: Staphylococcus aureus MRSA ATCC 43300; test: MIC, broth micro-dilution; assay type: cell-based; conditions: 24 h
[8] = system: Salmonella Typhimurium ATCC 14028; test: MIC, broth micro-dilution; assay type: cell-based; conditions: 24 h
[9] = system: Pseudomonas aeruginosa ATCC 10145; test: MIC, broth micro-dilution; assay type: cell-based
[10] = system: Acinetobacter baumannii ATCC 17978; test: MIC, broth micro-dilution; assay type: cell-based
[11] = system: Enterococcus faecium ATCC 19434; test: MIC, broth micro-dilution; assay type: cell-based
[12] = system: Enterobacter cloacae ATCC 13047; test: MIC, broth micro-dilution; assay type: cell-based

With `CC[C@H](C)[C@H](NC(=O)[C@@H](N)CCCNC(=N)N)C(=O)N[C@@H](CCCCN)C(=O)N[C@H](C(=O)N[C@@H](C)C(=O)N[C@H](C(=O)N[C@@H](Cc1c[nH]c2ccccc12)C(=O)N[C@@H](CCCNC(=N)N)C(=O)N[C@@H](CC(C)C)C(=O)N[C@@H](C)C(=O)N[C@@H](CC(C)C)C(=O)N[C@@H](CCCNC(=N)N)C(=O)N[C@@H](Cc1c[nH]c2ccccc12)C(=O)N[C@@H](CC(C)C)C(=O)N[C@@H](CCCCN)C(=O)N[C@@H](CC(C)C)C(=O)O)[C@@H](C)O)[C@@H](C)O` [KTA] (H-RIKTATWRLALRWLKL-OH) as the molecule, how does the “Extracellular K^+ content” value [1] read?
The value was 18.92 µg/mL.

What about the “Reduction of OD600 nm of treated cells with lysozyme” value [2] of the same molecule?
Its value is 17.2%.

With `CC[C@H](C)[C@H](NC(=O)[C@@H](N)CCCNC(=N)N)C(=O)N[C@@H](CCCCN)C(=O)N[C@H](C(=O)N[C@@H](CCCNC(=N)N)C(=O)N[C@H](C(=O)N[C@@H](Cc1c[nH]c2ccccc12)C(=O)N[C@@H](CCCNC(=N)N)C(=O)N[C@@H](CC(C)C)C(=O)N[C@@H](C)C(=O)N[C@@H](CC(C)C)C(=O)N[C@@H](CCCNC(=N)N)C(=O)N[C@@H](Cc1c[nH]c2ccccc12)C(=O)N[C@@H](CC(C)C)C(=O)N[C@@H](CCCCN)C(=O)N[C@@H](CC(C)C)C(=O)O)[C@@H](C)O)[C@@H](C)O` [KTR] (H-RIKTRTWRLALRWLKL-OH) as the molecule, how does the “Extracellular K^+ content” value [1] read?
The value was 21.53 µg/mL.

With `NC[C@H]1O[C@H](O[C@H]2[C@H](O)[C@@H](O[C@H]3O[C@H](CO)[C@@H](O)[C@H](N)[C@H]3O)[C@H](N)C[C@@H]2N)[C@H](N)C[C@@H]1O` [Tob, tobramycin] as the molecule, how does the MIC ([3]; Escherichia coli) read?
Its MIC is 548 µM (≈ 256 µg/mL).

What about the “MIC against E. coli MDR relative to wild-type E. coli strains” value [3] of the same molecule?
Its value is “at least 128 fold”.

And the MIC ([4]; Escherichia coli, ATCC8739, 24 h)?
The MIC was 4.3 µM (≈ 2.01 µg/mL).

And the MIC ([5]; Klebsiella pneumoniae, ATCC13883, 24 h)?
The MIC was 2.1 µM (≈ 0.982 µg/mL).

What about the MIC ([6]; Staphylococcus aureus, ATCC25923, 24 h) of the same molecule?
Its MIC is 17.1 µM (≈ 7.99 µg/mL).

And the MIC ([7]; Staphylococcus aureus)?
The MIC was 548 µM (≈ 256 µg/mL).

And the MIC ([8]; Salmonella enterica)?
The MIC was 17.1 µM (≈ 7.99 µg/mL).

What about the MIC ([9]; Pseudomonas aeruginosa, ATCC10145, 24 h) of the same molecule?
The MIC was 4.3 µM (≈ 2.01 µg/mL).

And the MIC ([10]; Acinetobacter baumannii, ATCC17978, 24 h)?
The MIC was 2.1 µM (≈ 0.982 µg/mL).

And the MIC ([11]; Enterococcus faecium, ATCC19434, 24 h)?
Its MIC is 274 µM (≈ 128 µg/mL).

What about the MIC ([12]; Enterobacter cloacae, ATCC13047, 24 h) of the same molecule?
Its MIC is 2.1 µM (≈ 0.982 µg/mL).

Which results are given for colistin?
MIC ([3]; Escherichia coli MDR, multi-drug resistant clinical isolate, broth micro-dilution in MHB, 37 °C, triplicate): 102.1 µM; MIC against E. coli MDR relative to wild-type E. coli strains [3]: ≥ 32 fold; MIC ([4]; Escherichia coli ATCC 8739, broth micro-dilution in MHB, 37 °C, 24 h, triplicate): 3.2 µM; MIC ([5]; Klebsiella pneumoniae ATCC 13883, broth micro-dilution in MHB, 37 °C, 24 h, triplicate): 12.8 µM; MIC ([6]; Staphylococcus aureus ATCC 25923, broth micro-dilution in MHB, 37 °C, 24 h, triplicate): 12.8 µM; MIC ([7]; Staphylococcus aureus MRSA ATCC 43300, broth micro-dilution in MHB, 37 °C, triplicate): 51.1 µM; MIC ([8]; Salmonella Typhimurium ATCC 14028, broth micro-dilution in MHB, 37 °C, triplicate): 6.4 µM; MIC ([9]; Pseudomonas aeruginosa ATCC 10145, broth micro-dilution in MHB, 37 °C, 24 h, triplicate): 6.4 µM; MIC ([10]; Acinetobacter baumannii ATCC 17978, broth micro-dilution in MHB, 37 °C, 24 h, triplicate): 1.6 µM; MIC ([11]; Enterococcus faecium ATCC 19434, broth micro-dilution in MHB, 37 °C, 24 h, triplicate): 204.2 µM; MIC ([12]; Enterobacter cloacae ATCC 13047, broth micro-dilution in MHB, 37 °C, 24 h, triplicate): 204.2 µM
